Test results as given in PubChem BioAssay AID1845212 (Molecular Pharmacology Branch, DTP, NCI, 2023).

Test system: NCI-H719 tumor spheroids, viability
Assay: Anticancer human tumor NCI-H719 cell line growth inhibition;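 also: spheroids exposed to compounds for seven days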;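 as to viability, T/C: percent viability relative to DMSO vehicle control as 100%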
Conditions: spheroids with HUVEC and MSC; for IC50: curve of first compound; for viability, T/C: stronger effect = lower value
Method in brief: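 Single agents and combinations were tested on spheroids built from tumor cells plus HUVEC and hMSC, at half-log dilutions starting at or near clinical Cmax, else 10 microM; final DMSO 0.25% (v/v).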

[1] = second compound 1 µM, first compound 0.00949 µM
[2] = second compound 1 µM, first compound 0.03 µM
[3] = second compound 1 µM, first compound 0.0949 µM
[4] = second compound 1 µM, first compound 0.3 µM
[5] = second compound 1 µM, first compound 0.949 µM
[6] = second compound 1 µM, first compound 3 µM
[7] = second compound 3.16 µM, first compound 0.00949 µM
[8] = second compound 3.16 µM, first compound 0.03 µM
[9] = second compound 3.16 µM, first compound 0.0949 µM
[10] = second compound 3.16 µM, first compound 0.3 µM
[11] = second compound 3.16 µM, first compound 0.949 µM
[12] = second compound 3.16 µM, first compound 3 µM
[13] = second compound 10 µM, first compound 0.00949 µM
[14] = second compound 10 µM, first compound 0.03 µM
[15] = second compound 10 µM, first compound 0.0949 µM
[16] = second compound 10 µM, first compound 0.3 µM
[17] = second compound 10 µM, first compound 0.949 µM
[18] = second compound 10 µM, first compound 3 µM
[19] = second compound 31.6 µM, first compound 0.00949 µM
[20] = second compound 31.6 µM, first compound 0.03 µM
[21] = second compound 31.6 µM, first compound 0.0949 µM
[22] = second compound 31.6 µM, first compound 0.3 µM
[23] = second compound 31.6 µM, first compound 0.949 µM
[24] = second compound 31.6 µM, first compound 3 µM
[25] = second compound 100 µM, first compound 0.00949 µM
[26] = second compound 100 µM, first compound 0.03 µM
[27] = second compound 100 µM, first compound 0.0949 µM
[28] = second compound 100 µM, first compound 0.3 µM
[29] = second compound 100 µM, first compound 0.949 µM
[30] = second compound 100 µM, first compound 3 µM

Row | SMILES | IC50 (second compound 1 µM) [nM] | IC50 (second compound 3.16 µM) [nM] | IC50 (second compound 10 µM) [nM] | IC50 (second compound 31.6 µM) [nM] | IC50 (second compound 100 µM) [nM] | viability, T/C [3] [%] | viability, T/C [4] [%] | viability, T/C [5] [%] | viability, T/C [6] [%] | viability, T/C [9] [%] | viability, T/C [10] [%] | viability, T/C [11] [%] | viability, T/C [12] [%] | viability, T/C [15] [%] | viability, T/C [16] [%] | viability, T/C [17] [%] | viability, T/C [18] [%] | viability, T/C [21] [%] | viability, T/C [22] [%] | viability, T/C [23] [%] | also measured
1 | CNCc1ccc(-c2cc(-c3nc(-c4ccc(S(=O)(=O)C(C)C)cc4)cnc3N)on2)cc1 + Cn1nnc2c(C(N)=O)ncn2c1=O | 131 | 95.4 | 162 | 94.4 | 33.6 | 43.5 | 39 | 8.27 | 0.15 | 46.7 | 18.9 | 9.22 | 0.14 | 80.2 | 15 | 8.28 | 18.1 | 49.8 | 15.7 | 8.28 | viability, T/C [1]: 88.2%; viability, T/C [2]: 95%; viability, T/C [7]: 97.6%; viability, T/C [8]: 94.2%; viability, T/C [13]: 101%; viability, T/C [14]: 93.7%; viability, T/C [19]: 105%; viability, T/C [20]: 106%; viability, T/C [24]: 37.8%; viability, T/C [25]: 80%; viability, T/C [26]: 52.8%; viability, T/C [27]: 24.4%; viability, T/C [28]: 9.66%; viability, T/C [29]: 39.1%; viability, T/C [30]: 0.23%
2 | Cc1sc2c(c1C)C(c1ccc(Cl)cc1)=NC(CC(=O)Nc1ccc(O)cc1)c1nnc(C)n1-2 (stereo not given) + Cn1nnc2c(C(N)=O)ncn2c1=O | 79.9 | 137 | 201 | 71 | 54.1 | 41.9 | 20.6 | 4.49 | 3.76 | 65.9 | 15.6 | 4.84 | 3.28 | 73.1 | 39.8 | 4.17 | 2.94 | 31.9 | 14.3 | 3.77 | viability, T/C [1]: 90.8%; viability, T/C [2]: 80.5%; viability, T/C [7]: 95.2%; viability, T/C [8]: 98.7%; viability, T/C [13]: 96.5%; viability, T/C [14]: 89%; viability, T/C [19]: 107%; viability, T/C [20]: 104%; viability, T/C [24]: 2.95%; viability, T/C [25]: 88%; viability, T/C [26]: 65%; viability, T/C [27]: 37%; viability, T/C [28]: 6.38%; viability, T/C [29]: 3.72%; viability, T/C [30]: 3%
3 | Cn1ncnc1[C@H]1c2n[nH]c(=O)c3cc(F)cc(c23)N[C@@H]1c1ccc(F)cc1 + Cn1nnc2c(C(N)=O)ncn2c1=O | < 9.49 | < 9.49 | < 9.49 | < 9.49 | < 9.49 | 7.66 | 7.07 | 6.65 | 7.52 | 7.04 | 7.11 | 7.41 | 8.3 | 7.6 | 6.29 | 30.5 | 8.25 | 7.1 | 7.06 | 7.26 | viability, T/C [1]: 18.9%; viability, T/C [2]: 7.46%; viability, T/C [7]: 14.8%; viability, T/C [8]: 7.76%; viability, T/C [13]: 7.72%; viability, T/C [14]: 6.58%; viability, T/C [19]: 6.42%; viability, T/C [20]: 7.02%; viability, T/C [24]: 9.15%; viability, T/C [25]: 7.03%; viability, T/C [26]: 6.67%; viability, T/C [27]: 6.67%; viability, T/C [28]: 7.34%; viability, T/C [29]: 7.7%; viability, T/C [30]: 9.27%
4 | O=C(c1cc(Cc2n[nH]c(=O)c3ccccc23)ccc1F)N1CCN(C(=O)C2CC2)CC1 + Cn1nnc2c(C(N)=O)ncn2c1=O | 1720 | 1360 | 1950 | < 94.9 | < 94.9 | 73.7 | 56 | 56.1 | 42.1 | 64.2 | 60.5 | 67 | 19.5 | 55.8 | 66.7 | 56 | 43.9 | 52.4 | 53.3 | 34.1 | viability, T/C (second compound 1 µM, first compound 9.49 µM): 7.25%; viability, T/C (second compound 1 µM, first compound 30 µM): 6.89%; viability, T/C (second compound 3.16 µM, first compound 9.49 µM): 20.2%; viability, T/C (second compound 3.16 µM, first compound 30 µM): 7.9%; viability, T/C (second compound 10 µM, first compound 9.49 µM): 29.8%; viability, T/C (second compound 10 µM, first compound 30 µM): 7.79%; viability, T/C [24]: 40.7%; viability, T/C (second compound 31.6 µM, first compound 9.49 µM): 42.8%; viability, T/C (second compound 31.6 µM, first compound 30 µM): 6.8%; viability, T/C [27]: 43.5%; viability, T/C [28]: 21.9%; viability, T/C [29]: 29.4%; viability, T/C [30]: 51.8%; viability, T/C (second compound 100 µM, first compound 9.49 µM): 7.29%; viability, T/C (second compound 100 µM, first compound 30 µM): 7.19%
